Test results reported in patent US20160108049A1 (TAKEDA Gmbh, priority 2011, published 2016).

Assays:
[1] = biological target: T1, PDE4B1 (Homo sapiens, UniProt Q07343); assay: Inhibition of PDE4 activity (PDE4B1, SPA assay); format: biochemical; details: recombinant PDE4B1, 0.5 μM cAMP; read-out: PDE4B1 Inhibitory values measured as -logIC50 (converted)
T1 construct: made in house; host or cells: SF21 insect cells (baculovirus; virus made in SF9 cells, pCR-Bac vector)
Procedure, shortened: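 Read-out is SPA yttrium silicate bead scintillation after IBMX-containing beads stop the reaction. Insect-cell (SF21) lysate enzyme hydrolysed 0.5 μM [3H]cAMP at pH 7.4 with 5 mM Mg2+ for 15 min after a 5 min 37 °C preincubation; IC50 fitted by non-linear regression.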

[2] = biological target: T2, human PDE5 (Homo sapiens, UniProt O76074); assay: Inhibition of PDE5 activity (platelet lysate, SPA assay); format: biochemical; details: 0.5 μM cGMP, read-out: PDE5 Inhibitory values measured as -logIC50 (converted)
T2 construct: from tissue; host or cells: human platelets from fresh donor blood (platelet lysate)
Procedure, shortened: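 SPA readout of [3H]cGMP hydrolysis (0.5 μM, 15 min, 37 °C after 5 min preincubation), stopped with yttrium silicate beads containing IBMX. Enzyme was lysate from human platelets, used at 10–20% substrate turnover, with PDE3 (motapizone 1 μM) and PDE2 (10 nM) blockers present. IC50 values fitted non-linearly from concentration-effect curves.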

T1 sequence (Q07343 whole entry): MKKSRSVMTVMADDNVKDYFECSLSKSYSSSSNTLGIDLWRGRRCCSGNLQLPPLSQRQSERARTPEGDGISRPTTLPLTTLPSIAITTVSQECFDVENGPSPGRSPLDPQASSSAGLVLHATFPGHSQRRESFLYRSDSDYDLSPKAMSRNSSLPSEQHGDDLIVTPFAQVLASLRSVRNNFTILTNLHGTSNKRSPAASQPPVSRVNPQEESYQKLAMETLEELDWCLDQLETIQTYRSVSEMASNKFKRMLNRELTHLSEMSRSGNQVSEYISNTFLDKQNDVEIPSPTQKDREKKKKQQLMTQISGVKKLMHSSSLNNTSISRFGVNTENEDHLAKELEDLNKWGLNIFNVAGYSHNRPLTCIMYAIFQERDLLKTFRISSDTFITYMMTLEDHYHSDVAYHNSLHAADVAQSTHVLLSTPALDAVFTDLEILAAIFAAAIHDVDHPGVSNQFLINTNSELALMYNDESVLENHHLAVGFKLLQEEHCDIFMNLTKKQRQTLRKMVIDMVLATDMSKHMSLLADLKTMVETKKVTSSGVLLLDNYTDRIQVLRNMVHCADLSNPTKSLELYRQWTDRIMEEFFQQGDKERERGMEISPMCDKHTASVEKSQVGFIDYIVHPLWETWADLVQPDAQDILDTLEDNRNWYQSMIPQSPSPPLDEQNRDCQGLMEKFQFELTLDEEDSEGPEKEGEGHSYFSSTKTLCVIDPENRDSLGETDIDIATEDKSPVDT

SMILES | IC50 [1] [nM] | IC50 [2] [nM]
CC[C@H](NC(=O)c1c(C)[nH]c2c(-c3c(OCC4CC4)ccc4c3OCO4)ncnc12)C(=O)N1CCC(N2N=C(c3ccc(OC)c(OC)c3)[C@H]3CCCC[C@H]3C2=O)CC1 [Example 64, 4-[5-(cyclopropylmethoxy)-1,3-benzodioxol-4-yl]-N-[(2S)-1-{4-[(4aS,8aR)-4-(3,4-dimethoxyphenyl)-1-oxo-4a,5,6,7,8,8a-hexahydrophthalazin-2(1H)-yl]piperidin-1-yl}-1-oxobutan-2-yl]-6-methyl-5H-pyrrolo[3,2-d]pyrimidine-7-carboxamide] | < 1 | < 1
COc1ccc(C2=NN(C3CCN(C(=O)[C@H](Cc4ccncc4)NC(=O)c4c[nH]c5c(-c6c(OCC7CC7)ccc7c6OCO7)ncnc45)CC3)C(=O)[C@@H]3CCCC[C@H]23)cc1OC [Example 41, 4-[5-(cyclopropylmethoxy)-1,3-benzodioxol-4-yl]-N-[(2S)-1-{4-[(4aS,8aR)-4-(3,4-dimethoxyphenyl)-1-oxo-4a,5,6,7,8,8a-hexahydrophthalazin-2(1H)-yl]piperidin-1-yl}-1-oxo-3-(pyridin-4-yl)propan-2-yl]-5H-pyrrolo[3,2-d]pyrimidine-7-carboxamide] | < 1 | < 1
COc1ccc(C2=NN(C3CCN(C(=O)[C@H](Cc4cccs4)NC(=O)c4c(C)[nH]c5c(-c6c(OCC7CC7)ccc7c6OCO7)ncnc45)CC3)C(=O)[C@@H]3CCCC[C@H]23)cc1OC [Example 74, 4-[5-(cyclopropylmethoxy)-1,3-benzodioxol-4-yl]-N-[(2S)-1-{4-[(4aS,8aR)-4-(3,4-dimethoxyphenyl)-1-oxo-4a,5,6,7,8,8a-hexahydrophthalazin-2(1H)-yl]piperidin-1-yl}-1-oxo-3-(thiophen-2-yl)propan-2-yl]-6-methyl-5H-pyrrolo[3,2-d]pyrimidine-7-carboxamide] | < 1 | < 1
COc1ccc(C2=NN(C3CCN(C(=O)[C@@H](Cc4c[nH]c5ccccc45)NC(=O)c4c[nH]c5c(-c6c(OCC7CC7)ccc7c6OCO7)ncnc45)CC3)C(=O)[C@@H]3CCCC[C@H]23)cc1OC [Example 91, 4-[5-(cyclopropylmethoxy)-1,3-benzodioxol-4-yl]-N-[(2R)-1-{4-[(4aS,8aR)-4-(3,4-dimethoxyphenyl)-1-oxo-4a,5,6,7,8,8a-hexahydrophthalazin-2(1H)-yl]piperidin-1-yl}-3-(1H-indol-3-yl)-1-oxopropan-2-yl]-5H-pyrrolo[3,2-d]pyrimidine-7-carboxamide] | < 1 | < 1
COc1ccc(C2=NN(C3CCN(C(=O)[C@@H](Cc4cn(C)c5ccccc45)NC(=O)c4c[nH]c5c(-c6c(OCC7CC7)ccc7c6OCO7)ncnc45)CC3)C(=O)[C@@H]3CCCC[C@H]23)cc1OC [Example 93, 4-[5-(cyclopropylmethoxy)-1,3-benzodioxol-4-yl]-N-[(2R)-1-{4-[(4aS,8aR)-4-(3,4-dimethoxyphenyl)-1-oxo-4a,5,6,7,8,8a-hexahydrophthalazin-2(1H)-yl]piperidin-1-yl}-3-(1-methyl-1H-indol-3-yl)-1-oxopropan-2-yl]-5H-pyrrolo[3,2-d]pyrimidine-7-carboxamide] | < 1 | 1 to 10
CCOc1ccc(C[C@@H](NC(=O)c2c[nH]c3c(-c4c(OCC5CC5)ccc5c4OCO5)ncnc23)C(=O)N2CCC(N3N=C(c4ccc(OC)c(OC)c4)[C@H]4CCCC[C@H]4C3=O)CC2)cc1 [Example 9, 4-[5-(cyclopropylmethoxy)-1,3-benzodioxol-4-yl]-N-[(2R)-1-{4-[(4aS,8aR)-4-(3,4-dimethoxyphenyl)-1-oxo-4a,5,6,7,8,8a-hexahydrophthalazin-2(1H)-yl]piperidin-1-yl}-3-(4-ethoxyphenyl)-1-oxopropan-2-yl]-5H-pyrrolo[3,2-d]pyrimidine-7-carboxamide] | < 1 | < 1
